Like-named read-outs stand apart in the source and are kept apart here.
Key:
Experiment in all cases: biochemical
Assay type in all cases: biochemical
[1] = molecular target: panel of 391 kinases (Homo sapiens, UniProt Q9BQI3); conditions: kinase EIF2AK1, compound at 1 µM, single dose in duplicates, 1 µM ATP
[2] = molecular target: panel of 391 kinases (Homo sapiens, UniProt P11802); conditions: MK-28 1 µM, ATP 1 µM; for remaining activity at 1 µM: read-out: % Enzyme Activity (relative to DMSO controls)
[3] = molecular target: panel of 391 kinases (Homo sapiens, UniProt Q15118); conditions: kinase PDK1/PDHK1, compound at 1 µM, single dose in duplicates, 1 µM ATP
[4] = molecular target: panel of 391 kinases (Homo sapiens, UniProt Q16512); conditions: PKN1/PRK1, MK-28 1 µM, ATP 1 µM
[5] = molecular target: panel of 391 kinases (Homo sapiens, UniProt P30530); conditions: AXL, MK-28 1 µM, ATP 1 µM
[6] = molecular target: panel of 391 kinases (Homo sapiens, UniProt P45984); conditions: JNK2, MK-28 1 µM, ATP 1 µM
[7] = molecular target: panel of 391 kinases (Homo sapiens, UniProt Q00526); conditions: MK-28 1 µM, ATP 1 µM; for remaining activity at 1 µM: read-out: % Enzyme Activity (relative to DMSO controls)
[8] = molecular target: panel of 391 kinases (Homo sapiens, UniProt Q99759); conditions: MEKK3, MK-28 1 µM, ATP 1 µM
[9] = molecular target: panel of 391 kinases (Homo sapiens, UniProt O14733); conditions: MKK7, MK-28 1 µM, ATP 1 µM
[10] = molecular target: panel of 391 kinases (Homo sapiens, UniProt Q13464); conditions: ROCK1, MK-28 1 µM, ATP 1 µM
[11] = molecular target: panel of 391 kinases (Homo sapiens, UniProt Q5TCY1); conditions: TTBK1, MK-28 1 µM, ATP 1 µM
[12] = molecular target: panel of 391 kinases (Homo sapiens, UniProt Q6P3R8); conditions: NEK5, MK-28 1 µM, ATP 1 µM
[13] = molecular target: panel of 391 kinases (Homo sapiens, UniProt P22455); conditions: FGFR4, MK-28 1 µM, ATP 1 µM
[14] = molecular target: panel of 391 kinases (Homo sapiens, UniProt Q00536); conditions: CDK16/cyclin Y (PCTAIRE), MK-28 1 µM, ATP 1 µM
[15] = molecular target: panel of 391 kinases (Homo sapiens, UniProt Q13555); conditions: CAMK2g, MK-28 1 µM, ATP 1 µM
[16] = molecular target: panel of 391 kinases (Homo sapiens, UniProt P54762); conditions: EPHB1, MK-28 1 µM, ATP 1 µM
[17] = molecular target: panel of 391 kinases (Homo sapiens, UniProt P30291); conditions: WEE1, MK-28 1 µM, ATP 1 µM
[18] = molecular target: panel of 391 kinases (Homo sapiens, UniProt Q15831); conditions: LKB1, MK-28 1 µM, ATP 1 µM
[19] = molecular target: panel of 391 kinases (Homo sapiens, UniProt Q9UK32); conditions: RSK4, MK-28 1 µM, ATP 1 µM
[20] = molecular target: panel of 391 kinases (Homo sapiens, UniProt P22607); conditions: FGFR3, MK-28 1 µM, ATP 1 µM
[21] = molecular target: panel of 391 kinases (Homo sapiens, UniProt O75385); conditions: ULK1, MK-28 1 µM, ATP 1 µM
[22] = molecular target: panel of 391 kinases (Homo sapiens, UniProt Q14289); conditions: PYK2, MK-28 1 µM, ATP 1 µM
[23] = molecular target: panel of 391 kinases (Homo sapiens, UniProt P16234); conditions: PDGFRa, MK-28 1 µM, ATP 1 µM
[24] = molecular target: panel of 391 kinases (Homo sapiens, UniProt O14578); conditions: STK21/CIT, MK-28 1 µM, ATP 1 µM
[25] = molecular target: panel of 391 kinases (Homo sapiens, UniProt P54764); conditions: EPHA4, MK-28 1 µM, ATP 1 µM
[26] = molecular target: panel of 391 kinases (Homo sapiens, UniProt Q13882); conditions: BRK, MK-28 1 µM, ATP 1 µM
[27] = read-out: % Enzyme Activity (relative to DMSO controls)

With `CN(/N=C\c1ccc(O)c(O)c1)c1nc(-c2ccccc2)cc(-c2ccccc2)n1` [MK-28] the “% Enzyme Activity (relative to DMSO controls)” value [1] was 96.86%, the remaining activity at 1 µM [1, 27] was 100% and the “% Enzyme Activity (relative to DMSO controls)” value ([2]; CDK4/cyclin D1) was 95.51%. The remaining activity at 1 µM ([2]; CDK4/cyclin D1) was 95.6%, the “% Enzyme Activity (relative to DMSO controls)” value ([2]; CDK4/cyclin D3) was 98.69% and the remaining activity at 1 µM ([2]; CDK4/cyclin D3) was 100%. The “% Enzyme Activity (relative to DMSO controls)” value [3] was 100.80%, the remaining activity at 1 µM [3, 27] was 101% and the “% Enzyme Activity (relative to DMSO controls)” value [4] was 112.74%. For the same molecule, the remaining activity at 1 µM [4, 27] was 113%, the “% Enzyme Activity (relative to DMSO controls)” value [5] was 98.72% and the remaining activity at 1 µM [5, 27] was 99.5%. The “% Enzyme Activity (relative to DMSO controls)” value [6] was 90.48%, the remaining activity at 1 µM [6, 27] was 90.8% and the “% Enzyme Activity (relative to DMSO controls)” value ([7]; CDK3/cyclin E2) was 90.11%. The remaining activity at 1 µM ([7]; CDK3/cyclin E2) was 92.8%, the “% Enzyme Activity (relative to DMSO controls)” value ([7]; CDK3/cyclin E) was 101.82% and the remaining activity at 1 µM ([7]; CDK3/cyclin E) was 102%. The “% Enzyme Activity (relative to DMSO controls)” value [8] was 87.80%, the remaining activity at 1 µM [8, 27] was 93.8% and the “% Enzyme Activity (relative to DMSO controls)” value [9] was 95.27%. For the same molecule, the remaining activity at 1 µM [9, 27] was 96.9%, the “% Enzyme Activity (relative to DMSO controls)” value [10] was 94.86% and the remaining activity at 1 µM [10, 27] was 99.6%. The “% Enzyme Activity (relative to DMSO controls)” value [11] was 93.65%, the remaining activity at 1 µM [11, 27] was 99% and the “% Enzyme Activity (relative to DMSO controls)” value [12] was 79.32%. For the same molecule, the remaining activity at 1 µM [12, 27] was 81.8%, the “% Enzyme Activity (relative to DMSO controls)” value [13] was 100.59% and the remaining activity at 1 µM [13, 27] was 105%. The “% Enzyme Activity (relative to DMSO controls)” value [14] was 113.27%, the remaining activity at 1 µM [14, 27] was 119% and the “% Enzyme Activity (relative to DMSO controls)” value [15] was 86.57%. The remaining activity at 1 µM [15, 27] was 87.8%, the “% Enzyme Activity (relative to DMSO controls)” value [16] was 96.23% and the remaining activity at 1 µM [16, 27] was 98.1%. The “% Enzyme Activity (relative to DMSO controls)” value [17] was 112.80%, the remaining activity at 1 µM [17, 27] was 114% and the “% Enzyme Activity (relative to DMSO controls)” value [18] was 90.38%. The remaining activity at 1 µM [18, 27] was 97.4%, the “% Enzyme Activity (relative to DMSO controls)” value [19] was 101.39% and the remaining activity at 1 µM [19, 27] was 102%. The “% Enzyme Activity (relative to DMSO controls)” value [20] was 103.07%, the remaining activity at 1 µM [20, 27] was 103% and the “% Enzyme Activity (relative to DMSO controls)” value [21] was 97.64%. The remaining activity at 1 µM [21, 27] was 100%, the “% Enzyme Activity (relative to DMSO controls)” value [22] was 101.51% and the remaining activity at 1 µM [22, 27] was 103%. The “% Enzyme Activity (relative to DMSO controls)” value [23] was 97.43%, the remaining activity at 1 µM [23, 27] was 97.7% and the “% Enzyme Activity (relative to DMSO controls)” value [24] was 95.45%. The remaining activity at 1 µM [24, 27] was 97.6%, the “% Enzyme Activity (relative to DMSO controls)” value [25] was 100.54% and the remaining activity at 1 µM [25, 27] was 101%. The “% Enzyme Activity (relative to DMSO controls)” value [26] was 102.30% and the remaining activity at 1 µM [26, 27] was 104%.
